Laboratory results: paper PMC6197089, “Disubstituted piperazine analogues of trifluoromethylphenylpiperazine and methylenedioxybenzylpiperazine: analytical differentiation and serotonin receptor binding studies” (Forensic sciences research, 2018)
Like-named read-outs stand apart in the source and are kept apart here.

What was measured:
[1] = tested on: cardiomyoblast h9c2 cells; conditions: cited from earlier work
5-HT1A receptors [2] = molecular target: T1, 5-HT1A receptors (Homo sapiens, UniProt P08908); test: PDSP radioligand competition binding, 5-HT1A; conditions: secondary binding assay, average of n = 3
T1 construct: University of North Carolina Psychoactive Drug Screening Project (PDSP), contract testing
T1 sequence (P08908 1-422): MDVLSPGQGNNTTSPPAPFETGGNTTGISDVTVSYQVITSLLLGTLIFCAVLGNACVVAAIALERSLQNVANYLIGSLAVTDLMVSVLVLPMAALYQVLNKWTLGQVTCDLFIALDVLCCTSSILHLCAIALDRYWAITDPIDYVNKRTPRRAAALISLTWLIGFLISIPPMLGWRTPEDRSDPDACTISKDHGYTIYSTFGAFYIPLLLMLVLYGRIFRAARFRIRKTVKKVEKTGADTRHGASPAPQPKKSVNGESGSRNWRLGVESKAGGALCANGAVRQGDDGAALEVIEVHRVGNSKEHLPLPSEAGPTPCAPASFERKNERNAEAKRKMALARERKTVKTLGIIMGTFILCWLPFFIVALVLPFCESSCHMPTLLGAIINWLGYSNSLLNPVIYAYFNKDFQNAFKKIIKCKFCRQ
Experimental: (§1) All six of the hybrid TFMPP–MDBP regioisomers reported in this manuscript were tested for their serotonin receptor and reuptake pump binding profiles by the University of North Carolina's Psychoactive Drug Screening Project (PDSP). Initially, each isomer was tested in a primary assay at a concentration of 10 umol/L for its ability to displace a standard ligand at each serotonin receptor and transporter subtype. […] The Ki (nmol/L) values were obtained from non-linear regression of radioligand competition binding isotherms in this assay and calculated from best-fit inhibitory concentration IC50 values using the Cheng–Prusoff equation. The reported values are the average of three (n = 3) determinations. Further experimental details regarding these receptor assays are presented in the PDSP Protocol Manual available at the PDSP website.

5-HT2A receptors [3] = molecular target: T2, 5-HT2A receptors (Homo sapiens, UniProt P28223); test: PDSP radioligand competition binding, 5-HT2A; conditions: for Ki: secondary binding assay, average of n = 3
T2 construct: University of North Carolina Psychoactive Drug Screening Project (PDSP), contract testing
T2 sequence (P28223 whole entry): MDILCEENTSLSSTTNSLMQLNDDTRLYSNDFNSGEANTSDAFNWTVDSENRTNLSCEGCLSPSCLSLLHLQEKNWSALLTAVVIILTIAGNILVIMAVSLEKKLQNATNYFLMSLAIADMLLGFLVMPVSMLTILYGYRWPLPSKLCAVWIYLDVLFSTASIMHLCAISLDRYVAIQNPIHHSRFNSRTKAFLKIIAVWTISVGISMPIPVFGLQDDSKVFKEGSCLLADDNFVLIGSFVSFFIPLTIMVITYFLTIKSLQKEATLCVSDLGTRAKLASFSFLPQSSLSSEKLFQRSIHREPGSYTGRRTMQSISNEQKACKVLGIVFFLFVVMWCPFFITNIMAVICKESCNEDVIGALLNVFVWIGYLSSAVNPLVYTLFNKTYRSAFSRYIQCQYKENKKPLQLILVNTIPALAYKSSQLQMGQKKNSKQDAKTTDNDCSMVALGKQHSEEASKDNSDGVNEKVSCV
Experimental: as §1

5-HT2B receptors = molecular target: T3, 5-HT2B receptors (Homo sapiens, UniProt P41595); test: PDSP radioligand competition binding, 5-HT2B; conditions: secondary binding assay, average of n = 3
T3 construct: University of North Carolina Psychoactive Drug Screening Project (PDSP), contract testing
T3 sequence (P41595 whole entry): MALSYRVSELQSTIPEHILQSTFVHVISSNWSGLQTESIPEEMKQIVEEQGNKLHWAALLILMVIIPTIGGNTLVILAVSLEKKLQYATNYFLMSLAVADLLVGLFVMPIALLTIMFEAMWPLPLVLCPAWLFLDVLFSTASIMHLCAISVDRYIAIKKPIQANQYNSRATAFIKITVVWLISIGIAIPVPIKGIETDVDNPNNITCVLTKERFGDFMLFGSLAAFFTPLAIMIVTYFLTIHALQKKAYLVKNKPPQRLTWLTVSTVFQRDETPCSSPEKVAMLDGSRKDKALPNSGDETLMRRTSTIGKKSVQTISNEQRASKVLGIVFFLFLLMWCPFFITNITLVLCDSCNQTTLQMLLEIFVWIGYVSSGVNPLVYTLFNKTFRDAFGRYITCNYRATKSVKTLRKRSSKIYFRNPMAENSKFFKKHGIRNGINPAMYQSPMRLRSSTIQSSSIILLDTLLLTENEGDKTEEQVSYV
Experimental: as §1

5-HT2C receptors = molecular target: T4, 5-HT2C receptors (Homo sapiens, UniProt P28335); test: PDSP radioligand competition binding, 5-HT2C; conditions: for Ki: secondary binding assay, average of n = 3
T4 construct: University of North Carolina Psychoactive Drug Screening Project (PDSP), contract testing
T4 sequence (P28335 33-458): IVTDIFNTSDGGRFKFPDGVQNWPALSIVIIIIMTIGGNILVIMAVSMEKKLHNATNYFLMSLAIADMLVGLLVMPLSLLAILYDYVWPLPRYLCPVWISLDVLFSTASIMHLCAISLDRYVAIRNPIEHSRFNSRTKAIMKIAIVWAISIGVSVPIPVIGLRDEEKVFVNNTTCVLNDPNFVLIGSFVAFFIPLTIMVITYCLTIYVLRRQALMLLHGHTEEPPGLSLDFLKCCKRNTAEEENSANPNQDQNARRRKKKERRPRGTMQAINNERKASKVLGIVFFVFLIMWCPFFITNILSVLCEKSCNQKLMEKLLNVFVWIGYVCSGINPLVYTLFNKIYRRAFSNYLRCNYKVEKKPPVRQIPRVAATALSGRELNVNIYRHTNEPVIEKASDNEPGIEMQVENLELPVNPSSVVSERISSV
Experimental: as §1

5-HT7 receptors = molecular target: T5, 5-HT7 receptors (Homo sapiens, UniProt P34969); test: PDSP radioligand competition binding, 5-HT7; conditions: for Ki: secondary binding assay, average of n = 3
T5 construct: University of North Carolina Psychoactive Drug Screening Project (PDSP), contract testing
T5 sequence (P34969 whole entry): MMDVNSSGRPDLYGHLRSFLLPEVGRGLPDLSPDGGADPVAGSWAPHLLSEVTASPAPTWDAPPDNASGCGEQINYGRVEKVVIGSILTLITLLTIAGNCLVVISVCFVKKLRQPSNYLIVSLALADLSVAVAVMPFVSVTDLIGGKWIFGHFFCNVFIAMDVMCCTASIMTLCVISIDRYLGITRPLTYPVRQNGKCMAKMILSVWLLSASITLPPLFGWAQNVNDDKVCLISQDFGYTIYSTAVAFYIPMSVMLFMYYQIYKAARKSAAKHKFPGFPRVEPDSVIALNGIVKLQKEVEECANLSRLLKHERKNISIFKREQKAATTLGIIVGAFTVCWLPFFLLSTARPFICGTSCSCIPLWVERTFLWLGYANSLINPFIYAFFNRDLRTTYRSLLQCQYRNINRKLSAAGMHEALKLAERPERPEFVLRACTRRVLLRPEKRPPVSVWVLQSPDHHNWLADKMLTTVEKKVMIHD
Experimental: as §1

[4] = molecular target: T6, SERT (serotonin reuptake pump) (Homo sapiens, UniProt P31645); test: PDSP radioligand competition binding, SERT; conditions: for Ki: secondary binding assay, average of n = 3
T6 construct: University of North Carolina Psychoactive Drug Screening Project (PDSP), contract testing
T6 sequence (P31645 whole entry, species assumed): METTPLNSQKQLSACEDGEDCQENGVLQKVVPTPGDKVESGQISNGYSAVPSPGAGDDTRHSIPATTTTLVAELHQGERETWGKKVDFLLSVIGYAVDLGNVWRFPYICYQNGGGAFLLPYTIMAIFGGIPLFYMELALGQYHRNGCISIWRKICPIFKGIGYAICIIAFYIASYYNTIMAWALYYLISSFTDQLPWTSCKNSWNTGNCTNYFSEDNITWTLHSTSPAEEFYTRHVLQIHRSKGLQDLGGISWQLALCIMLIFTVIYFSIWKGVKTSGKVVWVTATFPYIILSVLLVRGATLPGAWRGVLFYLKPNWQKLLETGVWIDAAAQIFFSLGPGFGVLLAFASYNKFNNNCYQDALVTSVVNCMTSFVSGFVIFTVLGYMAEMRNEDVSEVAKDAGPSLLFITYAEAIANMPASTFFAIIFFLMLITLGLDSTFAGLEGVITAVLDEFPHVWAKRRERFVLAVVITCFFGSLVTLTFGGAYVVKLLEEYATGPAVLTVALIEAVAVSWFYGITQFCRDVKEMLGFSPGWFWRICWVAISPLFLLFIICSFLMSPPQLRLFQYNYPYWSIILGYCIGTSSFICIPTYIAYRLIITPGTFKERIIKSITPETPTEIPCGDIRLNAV
Experimental: as §1

5-HT1A receptors [5] = molecular target: T1, 5-HT1A receptors; conditions: read-out: Ki, 5-HT1A; literature value, no reference given; cited from earlier work
5-HT1B receptors = conditions: literature value, no reference given; cited from earlier work
5-HT1D receptors = conditions: literature value, no reference given; cited from earlier work
5-HT2A receptors [6] = molecular target: T2, 5-HT2A receptors; conditions: read-out: Ki, 5-HT2A; literature value, no reference given; cited from earlier work
SERT = conditions: no reference given, cited from earlier work
[7] = tested on: 5-HT1A, 5-HT1B, 5-HT1D and 5-HT2C receptors; conditions: literature, no reference given; cited from earlier work
5-HT2A receptor = conditions: literature, no reference given; cited from earlier work
[8] = tested on: dopamine and norepinephrine reuptake pumps; conditions: literature, no reference given; cited from earlier work
[9] = tested on: other serotonin receptor subtypes; conditions: literature, no reference given; cited from earlier work

SMILES	Ki (5-HT1A receptors [2]) [nM]	Ki (5-HT2A receptors [3]) [nM]	Ki (5-HT2B receptors) [nM]	binding to 5-HT2C receptors, in words (5-HT2C receptors)	Ki (5-HT2C receptors) [nM]	binding by 5-HT7 receptors, in words (5-HT7 receptors)	Ki (5-HT7 receptors) [nM]	Ki [4] [nM]	further results
c1cc2c(cc1CN1CCNCC1)OCO2 [3,4-MDBP, 1-(3,4-methylenedioxybenzyl) piperazine]	–	–	–	–	–	–	–	–	intracellular calcium levels [1]: significant increase; mitochondrial membrane potential [1]: decrease
FC(F)(F)c1ccccc1N1CCN(Cc2cccc3c2OCO3)CC1 [Compound 1, 2-TFMPP-2,3-MDBP]	> 1000	> 1000	74.5	modest binding	868	bound by 5-HT7 receptors	165	> 1000	binding by 5-HT7 receptors, in words (5-HT7 receptors; listed as 2-TFMPP-2,3-MDBP): highest affinity
FC(F)(F)c1cccc(N2CCN(Cc3cccc4c3OCO4)CC2)c1 [Compound 2, 3-TFMPP-2,3-MDBP]	864	372	203	modest binding	753	bound by 5-HT7 receptors	747	> 1000	affinity at 5-HT2A receptors compared to 3-TFMPP, in words (5-HT2A receptors [3]): retained activity comparable to the parent designer drug
FC(F)(F)c1ccc(N2CCN(Cc3cccc4c3OCO4)CC2)cc1 [Compound 3, 4-TFMPP-2,3-MD]	> 1000	> 1000	870	–	> 1000	–	> 1000	> 1000	–
FC(F)(F)c1cccc(N2CCNCC2)c1 [Compound 3-TFMPP, 1-(3-trifluoromethylphenyl) piperazine]	–	–	–	–	–	–	–	–	Ki (5-HT1A receptors [5]): 288 nM; Ki (5-HT1B receptors): 132 nM; Ki (5-HT1D receptors): 282 nM; Ki (5-HT2A receptors [6]): 269 nM; EC50 (SERT; literature value, read-out: effective concentration (EC50) at SERT): 121 nM; serotonin release, in words (SERT; literature): promotes serotonin release; functional activity at all sites except 5-HT2A [7]: full agonist; functional activity at the 5-HT2A receptor (5-HT2A receptor): weak partial agonist or antagonist; effects on dopamine and norepinephrine reuptake pumps [8]: no effects; affinity for other serotonin receptor subtypes, in words [9]: does not show significant affinity; intracellular calcium levels [1]: significant increase; mitochondrial membrane potential [1]: decrease
FC(F)(F)c1ccccc1N1CCN(Cc2ccc3c(c2)OCO3)CC1 [Compound 4, 2-TFMPP-3,4-MDBP]	> 1000	> 1000	81	modest binding	924	bound by 5-HT7 receptors	462	> 1000	–
FC(F)(F)c1cccc(N2CCN(Cc3ccc4c(c3)OCO4)CC2)c1 [Compound 5, 3-TFMPP-3,4-MDBP]	188	> 1000	116	modest binding	430	bound by 5-HT7 receptors	516	> 1000	–
FC(F)(F)c1ccc(N2CCN(Cc3ccc4c(c3)OCO4)CC2)cc1 [Compound 6, 4-TFMPP-3,4-MDBP]	> 1000	> 1000	247	–	> 1000	–	> 1000	722	affinity for SERT pumps, in words [4]: significant affinity; potency at SERT relative to monosubstituted 3-TFMPP [4]: about six-times less potent
